Experimental data taken from US20220096449A1, “METHOD OF TREATMENT WITH TRADIPITANT” (Vanda Pharmaceuticals Inc., priority 2018, published 2022).

Tests used:
[1] = system: panel of 74 other receptors, enzymes, and ion channels; experiment: Binding panel of 74 other receptors, enzymes and ion channels; conditions: test concentration of 1 μM; any of 74 targets
NK-3 receptor = molecular target: T1, NK-3 receptor (Homo sapiens, UniProt P29371); experiment: NK-3 receptor inhibition; assay type: binding
T1 sequence (P29371 1-465): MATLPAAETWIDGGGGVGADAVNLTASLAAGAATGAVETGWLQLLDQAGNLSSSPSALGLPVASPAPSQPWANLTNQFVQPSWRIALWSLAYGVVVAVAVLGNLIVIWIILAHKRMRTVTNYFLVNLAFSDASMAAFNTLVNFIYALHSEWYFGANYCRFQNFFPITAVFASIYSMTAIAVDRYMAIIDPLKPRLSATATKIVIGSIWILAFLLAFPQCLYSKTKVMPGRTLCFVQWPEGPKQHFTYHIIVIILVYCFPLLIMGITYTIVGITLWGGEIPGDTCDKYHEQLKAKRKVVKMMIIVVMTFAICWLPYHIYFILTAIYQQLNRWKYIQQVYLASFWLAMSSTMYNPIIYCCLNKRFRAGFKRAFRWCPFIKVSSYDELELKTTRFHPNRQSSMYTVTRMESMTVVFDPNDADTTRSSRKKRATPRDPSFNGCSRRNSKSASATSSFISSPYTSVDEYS

brain NK-1 receptors = experiment: Brain NK-1 receptor occupancy with tracer GR205171; assay type: in vivo; conditions: p.o., tracer GR205171 iv
Method: A tracer NK-1 antagonist compound (GR205171) is used to evaluate the ability of other NK-1 antagonists to occupy the brain NK-1 receptors. In these studies, the test compounds are administered orally and the tracer compound is administered intravenously afterward. The occupancy of the NK-1 receptors is evaluated by quantitating the amount of the tracer compound bound to the brain NK-1 receptors after increasing doses of the test compounds.

healthy subjects = experiment: Gamma scintigraphic gastrointestinal motility study in healthy subjects; assay type: in vivo, human; conditions: single oral dose 20 mg or 200 mg
Method: A single-center, randomized, double-blind, placebo-controlled study is conducted to investigate the effect of tradipitant on small bowel transit time. A total of 15 healthy subjects, 12 men and 3 women, between the ages of 19 and 63 years are enrolled in the study and receive at least 1 dose of study medication. A total of 13 subjects complete the study. Subjects are randomized to receive 20 mg of tradipitant, 200 mg of tradipitant, or placebo as a single oral dose within each of 3 periods, co-administered with a capsule radiolabeled with a maximum of 1MBq ^111In. Four hours post-dose, all subjects also receive a second capsule radiolabeled with a maximum of 4MBq ^99mTc. Each subject receives all 3 doses during the study. For all dosing regimens, in vivo gamma scintigraphic studies are performed at predetermined intervals, and the following scintigraphic parameters are analyzed: onset and completion of gastric emptying, onset and completion of colon arrival, initiation and completion of small bowel transit, and initial and complete disintegration of the capsule (anatomical location and time).

[2] = system: patients with gastroparesis; experiment: Phase II gastroparesis study, open label extension (Example 4); assay type: in vivo, human
Text: In a phase II study of tradipitant in patients with gastroparesis, participants initially enter 4 week screening period prior to treatment with tradipitant, during which they answer a daily symptom questionnaire rating their nausea severity on a scale of 0 to 5, in which 0 represents no nausea, 1 represents very mild nausea, 2 represents mild nausea, 3 represents moderate nausea, 4 represents severe nausea, and 5 represents very severe nausea. After the 4 week screening period, patients enter the double blind randomized portion of the study, in which they receive either tradipitant 85 mg bid, or placebo. After 4 weeks of blinded study drug treatment, patients have the opportunity to enter an additional 8 week open label extension, during which each subject receives tradipitant 85 mg bid. 64 subjects participate in at least one week of the open label tradipitant dosing portion of the study. The average daily diarized nausea scores are reported for subjects during the 4 week screening period and during the up to 8 week open label extension.

NK-1 receptor = NK-1 receptor (Meriones unguiculatus, UniProt Q5DUB1); experiment: NK-1 agonist (GR73632)-induced foot-tapping behavior in gerbils; assay type: in vivo; design: from tissue; host or cells: living gerbils (central NK-1 receptors); conditions: gerbil
Sequence of NK-1 receptor (Q5DUB1 whole entry): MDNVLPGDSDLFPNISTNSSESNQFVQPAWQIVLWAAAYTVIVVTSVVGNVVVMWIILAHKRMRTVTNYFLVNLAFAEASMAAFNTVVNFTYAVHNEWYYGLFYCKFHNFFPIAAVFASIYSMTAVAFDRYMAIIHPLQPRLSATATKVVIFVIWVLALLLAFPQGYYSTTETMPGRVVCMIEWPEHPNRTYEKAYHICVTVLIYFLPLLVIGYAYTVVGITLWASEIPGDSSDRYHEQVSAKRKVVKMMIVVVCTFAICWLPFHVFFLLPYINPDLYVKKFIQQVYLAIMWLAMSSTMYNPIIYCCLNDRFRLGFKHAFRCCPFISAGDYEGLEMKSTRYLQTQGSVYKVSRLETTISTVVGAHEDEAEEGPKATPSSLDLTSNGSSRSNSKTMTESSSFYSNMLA
Method: Male Mongolian gerbils (Harlan Sprague Dawley, Indianapolis, Ind.) weighing 26 to 40 grams are administered the selective neurokinin-1 receptor agonist GR73632 ([…]) via direct, vertical, free-hand intracerebroventricular (icv) injection to a depth of 4.5 mm below bregma with a cuffed 27-gauge needle attached to a 50 μl Hamilton syringe Immediately after injection, animals are placed individually into isolated chambers with pressure-sensitive velocimeter platform floors (San Diego Instruments acoustic startle apparatus) that detect and quantify vibration. The San Diego Instruments “SR” DOS-based computer program is used on a PC to record the number of foot-taps over the following 6 to 10 minutes, beginning 30 seconds after the floor is lightly tapped. Raw data are converted with a Microsoft® Excel® (Microsoft® and Excel® are registered trademarks of Microsoft Corp., Redmond, Wash.) macro that determines the number of events over threshold (125) in each 250-millisecond time bin over the 5.5 minutes following onset of observation. The total number and average intensity of events over the duration is determined. Total number of taps is analyzed with one-way ANOVA and post-hoc Dunnett's test using JMP statistical software.
A dose-response curve (with doses of 0.3, 1, 3 and 10 pmols, icv) is initially generated with the NK-1 agonist GR73632.
NK-1 antagonists are tested for their ability to attenuate GR73632-induced foot tapping. NK-1 antagonists are administered (po) via oral feeding tube at doses and time points specified in each experiment. All animals receive only one dose of NK-1 antagonists in all tests.
NK-1 antagonists are administered at multiple doses (at least 3; one dose per animal) and response to GR73632 is measured.
NK-1 receptor antagonists are administered at multiple pre-treatment times (one administration per animal) including at 0.5, 1, 2, 4, 7, 16, and 24 hours prior to GR73632 injection. GR73632 (Peninsula Labs, CA) is dissolved in saline. Tradipitant is dissolved in 1% CMC/0.5% SLS/0.085% PVP vehicle.

O=C(c1ccccc1Cl)c1cccnc1-c1nnn(Cc2cc(C(F)(F)F)cc(C(F)(F)F)c2)c1-c1ccncc1 [Tradipitant, {2-[1-(3,5-bistrifluoromethylbenzyl)-5-pyridin-4-yl-1H-[1,2,3]triazol-4-yl]-pyridin-3-yl}-(2-chlorophenyl)-methanone]
inhibition of binding [1]: ≤ 50% | inhibition at NK-3 receptor (NK-3 receptor): no significant inhibition | ED50, occupancy of brain NK-1 receptors (brain NK-1 receptors): 0.04 mg/kg | effect on small bowel transit time (healthy subjects): statistically significant effect | effect on gastric emptying (healthy subjects; study underpowered): No effect | mean daily nausea score ([2]; 0 to 5 scale, open label 85 mg bid for 1 to 8 weeks, 64 patients): about 1.63 | median daily nausea score ([2]; 0 to 5 scale, open label extension 85 mg bid, 64 subjects): 1.35 | change of average percentage of nausea-free days compared to pre-treatment ([2]; 85 mg bid): doubled or greater | reduction of average daily nausea scores compared to pre-treatment ([2]; 85 mg bid): reduced by approximately one half | mean percentage of days nausea-free ([2]; open label extension 85 mg bid): 45.91% | median percentage of nausea-free days ([2]; open label extension 85 mg bid): 49.11% | time after administration with significant inhibition of foot-tapping (NK-1 receptor; 0.1 mg/kg po): up to 7 hours | effect on foot-tapping by 16 hours after administration (NK-1 receptor; 0.1 mg/kg po, 16 hours): significantly diminished | inhibition at 1 mg/kg (NK-1 receptor; 1 mg/kg, 16 hours after administration): > 50% | ED50 (NK-1 receptor; oral, 2 hours after administration, GR73632 3 pmol icv, read-out: ED50, inhibition of foot-tapping behavior): 0.03 ± 0.004 mg/kg
